Measured values taken from article PMC3445653 (Neuropharmacology, 2012).
Entries after “also recorded” stand apart in the source; their conditions may differ. Like-named read-outs stand apart in the source and are kept apart here.

How the values were obtained:
PKMζ [1] = molecular target: T1, PKMζ (Homo sapiens, UniProt Q05513); experiment: PKMζ phosphorylation assay, PKCε substrate; type: biochemical
T1 sequence (Q05513 1-409 isoform Q05513-2): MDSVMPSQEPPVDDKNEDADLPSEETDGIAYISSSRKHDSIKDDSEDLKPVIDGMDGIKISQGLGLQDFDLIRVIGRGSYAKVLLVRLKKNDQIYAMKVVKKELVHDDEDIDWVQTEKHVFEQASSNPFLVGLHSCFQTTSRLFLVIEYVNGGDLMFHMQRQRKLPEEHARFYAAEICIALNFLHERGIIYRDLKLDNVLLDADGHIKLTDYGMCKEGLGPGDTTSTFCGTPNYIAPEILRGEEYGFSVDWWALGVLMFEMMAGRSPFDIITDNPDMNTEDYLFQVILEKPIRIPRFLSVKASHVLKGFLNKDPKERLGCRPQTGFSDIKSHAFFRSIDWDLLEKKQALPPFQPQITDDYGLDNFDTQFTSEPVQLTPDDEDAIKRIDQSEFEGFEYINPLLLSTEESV

PKMζ-RFP fusion protein = conditions: ref Wu-Zhang et al., 2012, cited from earlier work
PKMζ [2] = molecular target: T1, PKMζ; conditions: ref Ling et al., 2002; cited from earlier work
catalytic domain of PKC = conditions: ref Herbert et al., 1990, cited from earlier work
[3] = test system: PDK1 phosphorylation of PKMζ (T410); experiment: Activation loop; type: cell-based, Sprague Dawley rats; conditions: 100 nM for 4 hr, control vs staurosporine p = 0.9, n = 5
[4] = test system: baseline fEPSPs in hippocampal slices; experiment: Baseline fEPSP in hippocampal slices; type: cell-based, Sprague Dawley rats; conditions: 100 nM; p = 0.8 between 10 and 60 min; n = 4
[5] = test system: PDK1 phosphorylation of N-terminally tagged, eGFP-PKMζ overexpressed in 293T cells; experiment: Activation loop phosphorylation of eGFP-PKMζ overexpressed in 293T cells; type: cell-based; conditions: 100 nM for 4 hr; A. Tcherepanov and T. C. Sacktor, unpublished data
LTP maintenance = conditions: cited from earlier work
LTP induction = conditions: 100 nM; hippocampal slices; ref Ling et al., 2002; cited from earlier work
[6] = test system: baseline postsynaptic AMPAR responses in CA1 pyramidal cells of hippocampal slices; experiment: Baseline postsynaptic AMPAR-mediated EPSCs; type: cell-based, Sprague Dawley rats; conditions: 5 μM scrambled ZIP; p = 0.6, 1 min before application vs 15 min after; n = 4

## COc1ccc2c(c[n+](C)c3c4cc5c(cc4ccc23)OCO5)c1OC [chelerythrine]
PKMζ [1]; DTT 10 μM, PKMζ 5 nM, 25 μM PKCε substrate, n = 4
  inhibition of PKMζ, 10 μM DTT: effective
PKMζ [1]; DTT 1 mM, PKMζ 5 nM, 25 μM PKCε substrate, n = 4
  inhibition of PKMζ, 1 mM DTT: much less effective
PKMζ [1]; high levels of dithiothreitol (DTT), PKMζ 5 nM
  sensitivity to redox state: redox-sensitive inhibitor of PKMζ; also recorded: sensitive to redox state
PKMζ-RFP fusion protein
  inhibition of PKMζ fusion protein in transfected cultured cells: did not inhibit
PKMζ [2]
  inhibition of PKM forms: highly effective on PKM forms; also recorded: particularly effective on PKM forms
Catalytic domain of PKC; inhibition of substrate binding
  mode of inhibition: competitive inhibitors of substrate binding
Catalytic domain of PKC; Thompson and Fields, 1996
  inhibition of catalytic domain of PKC: inhibitor of the catalytic domain of PKC

## CN[C@@H]1C[C@H]2O[C@@](C)([C@@H]1OC)n1c3ccccc3c3c4c(c5c6ccccc6n2c5c31)C(=O)NC4 [staurosporine]
[3]
  phosphorylation state of the activation loop of PKMζ (T410P): no effect
[3]; listed as Staurosporine
  phosphorylation state of the activation loop of PKMζ (T410P): does not alter the phosphorylation state
[4]
  effect on baseline fEPSP: no effect on baseline
[5]
  PDK1 phosphorylation of eGFP-PKMζ: no effect
PKMζ-RFP fusion protein; cultured cells
  activation loop phosphorylation of overexpressed PKMζ-RFP: reduce activation loop phosphorylation
LTP maintenance; 100 nM, 4 hours, hippocampal slices, ref Ling et al., 2002
  effect on LTP maintenance: does not reverse LTP maintenance; also recorded: but not LTP maintenance
LTP induction
  effect on LTP induction: prevented LTP induction; also recorded: block LTP induction

## myr-RLYRKRIWRSAGR-OH [scrambled ZIP]
PKMζ [1]; Fig. 4A, right, compared with ZIP
  efficacy on inhibiting PKMζ biochemically in vitro relative to ZIP: less effective
PKMζ [1]; higher doses, Fig. 4A, right
  inhibition of PKMζ at higher doses: will also inhibit PKMζ at higher doses
[6]
  effect on baseline postsynaptic AMPAR responses: no effect
LTP maintenance; dose equivalent to ZIP (5 μM), ref Serrano et al., 2005
  effect on LTP maintenance: ineffective
